Assay results as given in patent publication US9382254B2, “Compounds and pharmaceutical compositions thereof for the treatment of cystic fibrosis” (Galapagos NV, priority 2013, dated 2016).

Columns and labels:
CFTR ΔF508 mutant = molecular target: T1, CFTR ΔF508 mutant (Homo sapiens, UniProt P13569, DEL508-508); assay: YFP-halide influx assay for the CFTR-ΔF508 mutation (384 well, FDSS/μCell); assay type: cell-based; conditions: CFBE41o- cells, CFTR-ΔF508, 1×D-PBS, fluorescence after 36 seconds
T1 construct: expressed in transfected cells; host or cells: CFBE41o- (adenoviral transduction)
Source text: The YFP halide influx assay measures the functionality of the cystic fibrosis Transmembrane Conductance regulator (CFTR) channels in the cystic fibrosis bronchial epithelium cell line CFBE41o-. The assay is used to evaluate the capacity of compounds to increase the open probability of existing CFTR channels in the membrane. It makes use of the observation that the yellow fluorescent protein (YFP) variant YFP H148Q, I152L has its fluorescence substantially quenched by halide ions like Cl— and I—. (Galietta, Haggie, & Verkman, 2001) (Nagai, et al., 2002)
For this purpose, CFBE41o-cells are seeded in 384 well plates (3000 CFBE cells/well). One day after seeding, the CFBE cells are transduced with adenoviral vectors that direct the expression of the CFTR ΔF508 mutant and of the YFP reporter. Cells are incubated at 27° C., 5% CO2 for 24 hours so as to allow for the proper folding and migration to the membrane of the CFTR channel or treated with a CFTR modulator during 24 h at 37° C.
(§1) The I— induced quenching of fluorescence is recorded on an immediately after injection of I— for 2 min on an FDSS/μCell (Hamamatsu). The capacity of a compound to increase the channel opening is directly correlated with the decrease in fluorescence, and is expressed as (1-(fluorescence after 36 seconds (F)/fluorescence before injection (F0))) and an EC50 can be derived from a (1-F/F0) vs compound concentration plot.

CFTR G551D mutant = molecular target: T2, CFTR G551D mutant (Homo sapiens, UniProt P13569, G551D); assay: YFP-halide influx assay for the CFTR-G551D mutation; assay type: cell-based; conditions: HEK293 cells, forskolin 10.67 μM
T2 construct: expressed in transfected cells; host or cells: HEK293 (reverse transfection with plasmid)
Source text: The YFP halide influx assay measures the functionality of the cystic fibrosis Transmembrane Conductance regulator (CFTR) channels. The assay is used to evaluate the capacity of compounds to increase the channel opening of existing mutant CFTR channels in the membrane. It makes use of the observation that the yellow fluorescent protein (YFP) variant YFP H148Q, I152L, […] has its fluorescence substantially quenched by halide ions like Cl^− and I^−. (Galietta, Haggie, & Verkman, 2001)
For this purpose, HEK293-cells are seeded in 96 well plates. During seeding, the cells are reverse-transfected with plasmid vectors that direct the expression of the CFTR G551D mutant and of the YFP reporter. Cells are incubated at 37° C., 5% CO2 for 24 hours so as to allow for sufficient expression of the CFTR protein.
as §1, with “I^−-induced” for “I— induced”, “recorded” for “recorded on an”, “I^−” for “I—”, “7 seconds.” for “2 min on an FDSS/μCell (Hamamatsu).”, “7” for “36”

T1 sequence (P13569 with tags, fused parts or gaps DEL508-508): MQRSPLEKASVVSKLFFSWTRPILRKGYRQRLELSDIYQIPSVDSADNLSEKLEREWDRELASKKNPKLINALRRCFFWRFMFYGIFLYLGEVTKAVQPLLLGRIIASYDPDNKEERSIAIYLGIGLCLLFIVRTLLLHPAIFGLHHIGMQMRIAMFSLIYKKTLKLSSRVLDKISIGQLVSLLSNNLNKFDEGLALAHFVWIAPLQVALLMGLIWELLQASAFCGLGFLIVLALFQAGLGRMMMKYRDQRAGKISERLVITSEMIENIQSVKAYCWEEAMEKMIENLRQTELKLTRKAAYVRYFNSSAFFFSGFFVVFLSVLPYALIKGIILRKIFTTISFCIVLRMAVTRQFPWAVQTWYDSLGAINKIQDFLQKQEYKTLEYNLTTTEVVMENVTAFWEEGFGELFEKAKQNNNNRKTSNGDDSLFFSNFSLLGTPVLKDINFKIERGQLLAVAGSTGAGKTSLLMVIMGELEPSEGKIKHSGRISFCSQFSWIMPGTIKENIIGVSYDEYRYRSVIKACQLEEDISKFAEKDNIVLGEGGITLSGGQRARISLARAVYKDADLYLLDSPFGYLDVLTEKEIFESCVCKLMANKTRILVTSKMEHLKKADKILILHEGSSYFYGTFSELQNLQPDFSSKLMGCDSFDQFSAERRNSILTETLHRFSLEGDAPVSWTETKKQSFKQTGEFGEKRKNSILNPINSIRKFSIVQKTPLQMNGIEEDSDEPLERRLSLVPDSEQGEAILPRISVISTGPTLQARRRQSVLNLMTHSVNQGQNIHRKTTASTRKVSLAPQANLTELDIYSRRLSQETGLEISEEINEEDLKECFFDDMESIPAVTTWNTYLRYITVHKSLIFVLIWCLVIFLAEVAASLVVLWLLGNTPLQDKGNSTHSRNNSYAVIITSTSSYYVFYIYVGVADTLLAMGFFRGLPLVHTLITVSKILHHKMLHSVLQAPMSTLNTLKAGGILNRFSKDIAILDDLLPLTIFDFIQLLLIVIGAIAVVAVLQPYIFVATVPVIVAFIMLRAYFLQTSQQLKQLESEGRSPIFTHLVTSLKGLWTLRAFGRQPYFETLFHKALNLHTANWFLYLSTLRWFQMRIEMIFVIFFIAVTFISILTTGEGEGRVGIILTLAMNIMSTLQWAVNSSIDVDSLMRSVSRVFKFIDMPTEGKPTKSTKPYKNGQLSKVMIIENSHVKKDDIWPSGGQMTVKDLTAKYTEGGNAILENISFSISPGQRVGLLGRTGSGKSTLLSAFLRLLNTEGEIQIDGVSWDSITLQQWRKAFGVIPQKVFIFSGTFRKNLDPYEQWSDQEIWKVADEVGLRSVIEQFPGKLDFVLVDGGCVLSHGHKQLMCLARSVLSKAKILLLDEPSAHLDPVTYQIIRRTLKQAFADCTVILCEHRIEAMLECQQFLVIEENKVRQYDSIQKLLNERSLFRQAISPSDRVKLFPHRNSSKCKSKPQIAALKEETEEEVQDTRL
T2 sequence (P13569 whole entry G551D): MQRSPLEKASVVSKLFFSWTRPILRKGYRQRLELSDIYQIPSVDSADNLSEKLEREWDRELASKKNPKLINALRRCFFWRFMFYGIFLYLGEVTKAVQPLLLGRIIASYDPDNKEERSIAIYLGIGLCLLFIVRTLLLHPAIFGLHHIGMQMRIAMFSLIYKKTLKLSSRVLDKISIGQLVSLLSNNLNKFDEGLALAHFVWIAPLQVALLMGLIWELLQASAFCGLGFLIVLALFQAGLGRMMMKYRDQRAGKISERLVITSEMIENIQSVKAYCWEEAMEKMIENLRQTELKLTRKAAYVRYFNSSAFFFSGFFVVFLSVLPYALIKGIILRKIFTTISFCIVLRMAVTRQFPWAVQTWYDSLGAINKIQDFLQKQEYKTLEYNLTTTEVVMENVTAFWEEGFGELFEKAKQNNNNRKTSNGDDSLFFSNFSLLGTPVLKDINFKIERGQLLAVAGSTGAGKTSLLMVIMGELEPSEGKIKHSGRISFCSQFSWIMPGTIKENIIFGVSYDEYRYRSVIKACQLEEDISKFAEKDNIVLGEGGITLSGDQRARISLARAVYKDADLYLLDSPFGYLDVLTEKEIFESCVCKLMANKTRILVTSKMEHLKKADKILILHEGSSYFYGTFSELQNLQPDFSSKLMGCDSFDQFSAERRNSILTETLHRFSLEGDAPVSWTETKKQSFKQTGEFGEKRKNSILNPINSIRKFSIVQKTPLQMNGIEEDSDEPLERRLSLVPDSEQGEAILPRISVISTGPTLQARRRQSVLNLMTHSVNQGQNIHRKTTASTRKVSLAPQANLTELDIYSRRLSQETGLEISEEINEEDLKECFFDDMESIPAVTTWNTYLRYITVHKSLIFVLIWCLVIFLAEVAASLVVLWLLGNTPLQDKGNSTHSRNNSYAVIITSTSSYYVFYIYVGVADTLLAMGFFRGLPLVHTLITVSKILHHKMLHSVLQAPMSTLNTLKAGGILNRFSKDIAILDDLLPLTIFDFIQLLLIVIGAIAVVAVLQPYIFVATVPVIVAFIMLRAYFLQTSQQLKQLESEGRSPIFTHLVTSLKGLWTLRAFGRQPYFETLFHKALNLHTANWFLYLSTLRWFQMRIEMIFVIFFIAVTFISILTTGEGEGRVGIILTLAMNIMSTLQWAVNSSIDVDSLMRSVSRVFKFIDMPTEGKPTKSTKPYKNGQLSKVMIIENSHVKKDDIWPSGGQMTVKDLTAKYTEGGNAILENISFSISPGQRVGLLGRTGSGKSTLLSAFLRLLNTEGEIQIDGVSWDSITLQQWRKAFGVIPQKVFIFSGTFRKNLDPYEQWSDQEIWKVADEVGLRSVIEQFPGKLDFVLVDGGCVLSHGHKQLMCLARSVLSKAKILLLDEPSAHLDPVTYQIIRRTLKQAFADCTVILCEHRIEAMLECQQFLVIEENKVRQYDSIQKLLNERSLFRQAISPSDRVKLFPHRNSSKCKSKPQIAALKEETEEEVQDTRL

Row | EC50 (CFTR ΔF508 mutant) [nM] | EC50 (CFTR G551D mutant) [nM] | EC50 (CFTR G551D mutant; class symbol) [nM] | SMILES
1 | 9.63 | 2060 | – | CC(CO)C(=O)Nc1sc(S(=O)(=O)c2ccc(F)cc2C(F)(F)F)cc1C(N)=O (stereo not shown) [Compound 359, 5-[4-fluoro-2-(trifluoromethyl)phenyl] sulfonyl-2-[(3-hydroxy-2-methyl-propanoyl)amino] thiophene-3-carboxamide]
2 | 12.2 | > 1340 | > 1000 | CC(C)C(O)C(=O)Nc1sc(S(=O)(=O)c2ccc(F)cc2)cc1C(N)=O (single isomer, unassigned; enantiomer 1) [Compound 352]
3 | 105 | 771 | – | CC(C)(C)C(O)C(=O)Nc1sc(S(=O)(=O)c2ccc(F)cc2)cc1C(N)=O (stereo not shown) [Compound 342, 5-(4-fluorophenyl)sulfonyl-2-[(2-hydroxy-3,3-dimethyl-butanoyl)amino] thiophene-3-carboxamide]
4 | 22.8 | 525 | – | C[C@@H](O)C(=O)Nc1sc(S(=O)(=O)c2ccc(OC(F)(F)F)cc2)cc1C(N)=O [Compound 332, 2-[[(2R)-2-hydroxypropanoyl]amino]-5-[4-(trifluoromethoxy)phenyl] sulfonyl-thiophene-3-carboxamide]
5 | 25.8 | 427 | – | CC(O)C(=O)Nc1sc(S(=O)(=O)c2ccc(OC(F)(F)F)cc2Cl)cc1C(N)=O (stereo not shown) [Compound 328, 5-[2-chloro-4-(trifluoromethoxy)phenyl] sulfonyl-2-(2-hydroxypropanoylamino) thiophene-3-carboxamide]
6 | 56.1 | 1310 | – | CC(C)(O)C(=O)Nc1sc(S(=O)(=O)c2ccc(C#N)cc2F)cc1C(N)=O [Compound 406, 5-(4-cyano-2-fluoro-phenyl)sulfonyl-2-[(2-hydroxy-2-methyl-propanoyl)amino] thiophene-3-carboxamide]
7 | 90.9 | 3330 | – | NC(=O)c1cc(S(=O)(=O)c2ccc(OC(F)(F)F)cc2)sc1NC(=O)C1CCCO1 (stereo not shown) [Compound 442, N-[3-carbamoyl-5-[4-(trifluoromethoxy)phenyl]sulfonyl-2-thienyl] tetrahydrofuran-2-carboxamide]
8 | 111 | 528 | – | CC(C)C(O)C(=O)Nc1sc(S(=O)(=O)c2ccc(OC(F)(F)F)cc2)cc1C(N)=O (stereo not shown) [Compound 345, 2-[(2-hydroxy-3-methyl-butanoyl)amino]-5-[4-(trifluoromethoxy)phenyl] sulfonyl-thiophene-3-carboxamide]
9 | 5.4 | 942 | – | C[C@H](O)C(=O)Nc1sc(S(=O)(=O)c2c(Cl)cc(F)cc2Cl)cc1C(N)=O [Compound 355, 5-(2,6-dichloro-4-fluoro-phenyl)sulfonyl-2-[[(2S)-2-hydroxypropanoyl]amino] thiophene-3-carboxamide]
10 | 150 | 2220 | – | CC(C)(O)C(=O)Nc1sc(S(=O)(=O)c2ccc(C(F)(F)F)nn2)cc1C(N)=O [Compound 431, 2-[(2-hydroxy-2-methyl-propanoyl)amino]-5-[6-(trifluoromethyl)pyridazin-3-yl]sulfonyl-thiophene-3-carboxamide]
11 | 8.1 | 1750 | – | NC(=O)c1cc(S(=O)(=O)c2cc(F)ccc2Cl)sc1NC(=O)CO [Compound 339, 5-(2-Chloro-5-fluoro-benzensulfonyl)-2-(2-hydroxy-acetylamino)-thiophene-3-carboxylic acid amide]
12 | 56.7 | 1950 | – | COc1ccc(S(=O)(=O)c2cc(C(N)=O)c(NC(=O)C(C)(C)O)s2)cc1 [Compound 400, 2-[(2-hydroxy-2-methyl-propanoyl)amino]-5-(4-methoxyphenyl)sulfonyl-thiophene-3-carboxamide]
13 | 8.2 | 377 | – | NC(=O)c1cc(S(=O)(=O)c2ccccc2OC(F)(F)F)sc1NC(=O)CO [Compound 319, 2-(2-Hydroxy-acetylamino)-5-(2-trifluoromethoxy-benzensulfonyl)-thiophene-3-carboxylic acid amide]
14 | 30.4 | 366 | – | NC(=O)c1cc(S(=O)(=O)c2ccc(OC(F)(F)F)cc2)sc1NC(=O)C1(CO)CCC1 [Compound 364, 2-[[1-(hydroxymethyl)cyclobutanecarbonyl]amino]-5-[4-(trifluoromethoxy)phenyl] sulfonyl-thiophene-3-carboxamide]
15 | 294 | 1860 | – | CC(C)(O)C(=O)Nc1sc(S(=O)(=O)c2ccc(C(F)F)cn2)cc1C(N)=O [Compound 395, 5-[[5-(difluoromethyl)-2-pyridyl]sulfonyl]-2-[(2-hydroxy-2-methyl-propanoyl)amino] thiophene-3-carboxamide]
16 | 43.3 | 695 | – | CC(C)(O)C(=O)Nc1sc(S(=O)(=O)c2ccc(Cl)cc2OC(F)(F)F)cc1C(N)=O [Compound 388, 5-[4-chloro-2-(trifluoromethoxy)phenyl] sulfonyl-2-[(2-hyroxy-2-methyl-propanoyl)amino] thiophene-3-carboxamide]
17 | 42.4 | 828 | – | CC(C)Oc1ccc(S(=O)(=O)c2cc(C(N)=O)c(NC(=O)C(C)(C)O)s2)c(F)c1 [Compound 315, 5-(2-Fluoro-4-isopropoxy-benzenesulfonyl)-2-(2-hydroxy-2-methyl-propionylamino)-thiophene-3-carboxylic acid amide]
18 | 7.16 | 6660 | – | Cc1c(S(=O)(=O)c2ccc(C(F)(F)F)cc2F)sc(NC(=O)C(C)(C)O)c1C(N)=O [Compound 439, 5-[2-fluoro-4-(trifluoromethyl)phenyl]sulfonyl-2-[(2-hydroxy-2-methyl-propanoyl)amino]-4-methyl-thiophene-3-carboxamide]
19 | 16.4 | 2550 | – | C[C@H](O)C(=O)Nc1sc(S(=O)(=O)c2ccc(F)cc2C(F)(F)F)cc1C(N)=O (single isomer, unassigned; enantiomer 1) [Compound 348]
20 | 22.3 | 1230 | – | CC(CO)C(=O)Nc1sc(S(=O)(=O)c2ccc(Cl)cc2)cc1C(N)=O (stereo not shown) [Compound 362, 5-(4-chlorophenyl)sulfonyl-2-[(3-hydroxy-2-methyl-propanoyl)amino] thiophene-3-carboxamide]
21 | 343 | 931 | – | CC(C)(C)C(O)C(=O)Nc1sc(S(=O)(=O)c2ccc(OC(F)(F)F)cc2)cc1C(N)=O (stereo not shown) [Compound 349, 2-[(2-hydroxy-3,3-dimethyl-butanoyl)amino]-5-[4-(trifluoromethoxy)phenyl] sulfonyl-thiophene-3-carboxamide]
22 | 47.7 | 2370 | – | CC(C)(O)C(=O)Nc1sc(S(=O)(=O)c2cccc(C#N)c2)cc1C(N)=O [Compound 409, 5-(3-cyanophenyl)sulfonyl-2-[(2-hydroxy-2-methyl-propanoyl)amino] thiophene-3-carboxamide]
23 | 19.1 | 1390 | – | CC(O)C(=O)Nc1sc(S(=O)(=O)c2ccc(Cl)cc2)cc1C(N)=O (single isomer, unassigned; enantiomer 1) [Compound 347]
24 | 4.8 | 72.6 | – | CC(C)(O)C(=O)Nc1sc(S(=O)(=O)c2cc(C#N)ccc2OC(F)(F)F)cc1C(N)=O [Compound 372, 5-[5-cyano-2-(trifluoromethoxy)phenyl] sulfonyl-2-[(2-hydroxy-2-methyl-propanoyl)amino] thiophene-3-carboxamide]
